Assay results taken from PubChem BioAssay (NCI).
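Results reflect a 48-hour exposure of cells in 96-well plates to compound at five concentrations. GI50 marks 50% less growth. TGI is the concentration that stops growth completely.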

Experiments:
Test in all cases: inhibition of tumour cell growth, NCI panel, 48 h
786-0 renal = system: 786-0 renal
A498 renal = system: A498 renal
A549 NSCLC = system: A549 NSCLC
ACHN renal = system: ACHN renal
BT-549 breast = system: BT-549 breast
CAKI-1 renal = system: CAKI-1 renal
CCRF-CEM leukemia = system: CCRF-CEM leukemia
COLO 205 colon = system: COLO 205 colon
DU-145 prostate = system: DU-145 prostate
EKVX NSCLC = system: EKVX NSCLC
HCC-2998 colon = system: HCC-2998 colon
HCT-116 colon = system: HCT-116 colon
HCT-15 colon = system: HCT-15 colon
HL-60(TB) leukemia = system: HL-60(TB) leukemia
HOP-62 NSCLC = system: HOP-62 NSCLC
HOP-92 NSCLC = system: HOP-92 NSCLC
HS 578T breast = system: HS 578T breast
HT29 colon = system: HT29 colon
IGROV1 ovarian = system: IGROV1 ovarian
K-562 leukemia = system: K-562 leukemia
KM12 colon = system: KM12 colon
LOX IMVI melanoma = system: LOX IMVI melanoma
M14 melanoma = system: M14 melanoma
MALME-3M melanoma = system: MALME-3M melanoma
MCF7 breast = system: MCF7 breast
MDA-MB-231 breast = system: MDA-MB-231 breast
MDA-MB-435 = system: MDA-MB-435
MOLT-4 leukemia = system: MOLT-4 leukemia
NCI-H226 lung = system: NCI-H226 lung
NCI-H23 lung = system: NCI-H23 lung
NCI-H460 lung = system: NCI-H460 lung
NCI-H522 lung = system: NCI-H522 lung
NCI/ADR-RES ovarian = system: NCI/ADR-RES ovarian
OVCAR-3 ovarian = system: OVCAR-3 ovarian
OVCAR-4 ovarian = system: OVCAR-4 ovarian
OVCAR-5 ovarian = system: OVCAR-5 ovarian
OVCAR-8 ovarian = system: OVCAR-8 ovarian
PC-3 prostate = system: PC-3 prostate
RPMI-8226 leukemia = system: RPMI-8226 leukemia
RXF 393 renal = system: RXF 393 renal
SF-268 CNS = system: SF-268 CNS
SF-295 CNS = system: SF-295 CNS
SF-539 CNS = system: SF-539 CNS
SK-MEL-2 melanoma = system: SK-MEL-2 melanoma
SK-MEL-28 melanoma = system: SK-MEL-28 melanoma
SK-MEL-5 melanoma = system: SK-MEL-5 melanoma
SK-OV-3 ovarian = system: SK-OV-3 ovarian
SN12C renal = system: SN12C renal
SNB-19 CNS = system: SNB-19 CNS
SNB-75 CNS = system: SNB-75 CNS
SR leukemia = system: SR leukemia
SW-620 colon = system: SW-620 colon
T-47D breast = system: T-47D breast
TK-10 renal = system: TK-10 renal
U251 CNS = system: U251 CNS
UACC-257 melanoma = system: UACC-257 melanoma
UACC-62 melanoma = system: UACC-62 melanoma
UO-31 renal = system: UO-31 renal

CN1CCN(Cc2ccc(NC(=O)c3cncc(C#Cc4cnc5ccc(OCCCS(C)(=O)=O)nn45)c3)cc2C(F)(F)F)CC1
GI50 (786-0 renal): 359 nM
TGI (786-0 renal): 1170 nM
GI50 (A498 renal): 863 nM
TGI (A498 renal): 1620 nM
GI50 (A549 NSCLC): 1090 nM
TGI (A549 NSCLC): 5930 nM
GI50 (ACHN renal): 1390 nM
TGI (ACHN renal): 4460 nM
GI50 (BT-549 breast): 469 nM
TGI (BT-549 breast): 1390 nM
GI50 (CAKI-1 renal): 459 nM
TGI (CAKI-1 renal): 2680 nM
GI50 (CCRF-CEM leukemia): 213 nM
TGI (CCRF-CEM leukemia): 22400 nM
GI50 (COLO 205 colon): 377 nM
TGI (COLO 205 colon): 1150 nM
GI50 (DU-145 prostate): 691 nM
TGI (DU-145 prostate): 3790 nM
GI50 (EKVX NSCLC): 1120 nM
TGI (EKVX NSCLC): 4280 nM
GI50 (HCC-2998 colon): 687 nM
TGI (HCC-2998 colon): 2750 nM
GI50 (HCT-116 colon): 67.3 nM
TGI (HCT-116 colon): 594 nM
GI50 (HCT-15 colon): 1340 nM
TGI (HCT-15 colon): 4260 nM
GI50 (HL-60(TB) leukemia): 229 nM
TGI (HL-60(TB) leukemia): 802 nM
GI50 (HOP-62 NSCLC): 833 nM
TGI (HOP-62 NSCLC): 2760 nM
GI50 (HOP-92 NSCLC): 101 nM
TGI (HOP-92 NSCLC): 393 nM
GI50 (HS 578T breast): 318 nM
TGI (HS 578T breast): 1660 nM
GI50 (HT29 colon): 475 nM
TGI (HT29 colon): 1890 nM
GI50 (IGROV1 ovarian): 258 nM
TGI (IGROV1 ovarian): 2450 nM
GI50 (K-562 leukemia): 12.3 nM
TGI (K-562 leukemia): 2170 nM
GI50 (KM12 colon): 5 nM
TGI (KM12 colon): 1400 nM
GI50 (LOX IMVI melanoma): 305 nM
TGI (LOX IMVI melanoma): 1020 nM
GI50 (M14 melanoma): 171 nM
TGI (M14 melanoma): 701 nM
GI50 (MALME-3M melanoma): 128 nM
TGI (MALME-3M melanoma): 576 nM
GI50 (MCF7 breast): 213 nM
TGI (MCF7 breast): 2830 nM
GI50 (MDA-MB-231 breast): 166 nM
TGI (MDA-MB-231 breast): 1050 nM
GI50 (MDA-MB-435): 221 nM
TGI (MDA-MB-435): 1000 nM
GI50 (MOLT-4 leukemia): 272 nM
TGI (MOLT-4 leukemia): 3710 nM
GI50 (NCI-H226 lung): 131 nM
TGI (NCI-H226 lung): 1030 nM
GI50 (NCI-H23 lung): 420 nM
TGI (NCI-H23 lung): 1560 nM
GI50 (NCI-H460 lung): 311 nM
TGI (NCI-H460 lung): 953 nM
GI50 (NCI-H522 lung): 460 nM
TGI (NCI-H522 lung): 1280 nM
GI50 (NCI/ADR-RES ovarian): 8490 nM
TGI (NCI/ADR-RES ovarian): 34100 nM
GI50 (OVCAR-3 ovarian): 795 nM
TGI (OVCAR-3 ovarian): 3040 nM
GI50 (OVCAR-4 ovarian): 547 nM
TGI (OVCAR-4 ovarian): 1930 nM
GI50 (OVCAR-5 ovarian): 892 nM
TGI (OVCAR-5 ovarian): 4570 nM
GI50 (OVCAR-8 ovarian): 1000 nM
TGI (OVCAR-8 ovarian): 4330 nM
GI50 (PC-3 prostate): 873 nM
TGI (PC-3 prostate): 4970 nM
GI50 (RPMI-8226 leukemia): 1190 nM
TGI (RPMI-8226 leukemia): 3410 nM
GI50 (RXF 393 renal): 803 nM
TGI (RXF 393 renal): 1630 nM
GI50 (SF-268 CNS): 690 nM
TGI (SF-268 CNS): 1720 nM
GI50 (SF-295 CNS): 1090 nM
TGI (SF-295 CNS): 4770 nM
GI50 (SF-539 CNS): 164 nM
TGI (SF-539 CNS): 906 nM
GI50 (SK-MEL-2 melanoma): 216 nM
TGI (SK-MEL-2 melanoma): 783 nM
GI50 (SK-MEL-28 melanoma): 796 nM
TGI (SK-MEL-28 melanoma): 2550 nM
GI50 (SK-MEL-5 melanoma): 775 nM
TGI (SK-MEL-5 melanoma): 1740 nM
GI50 (SK-OV-3 ovarian): 868 nM
TGI (SK-OV-3 ovarian): 3470 nM
GI50 (SN12C renal): 415 nM
TGI (SN12C renal): 2200 nM
GI50 (SNB-19 CNS): 1290 nM
TGI (SNB-19 CNS): 4460 nM
GI50 (SNB-75 CNS): 338 nM
TGI (SNB-75 CNS): 1130 nM
GI50 (SR leukemia): 207 nM
TGI (SR leukemia): 1470 nM
GI50 (SW-620 colon): 193 nM
TGI (SW-620 colon): 1050 nM
GI50 (T-47D breast): 783 nM
TGI (T-47D breast): 12200 nM
GI50 (TK-10 renal): 1130 nM
TGI (TK-10 renal): 2940 nM
GI50 (U251 CNS): 554 nM
TGI (U251 CNS): 2610 nM
GI50 (UACC-257 melanoma): 1030 nM
TGI (UACC-257 melanoma): 3470 nM
GI50 (UACC-62 melanoma): 571 nM
TGI (UACC-62 melanoma): 1520 nM
GI50 (UO-31 renal): 1330 nM
TGI (UO-31 renal): 3770 nM
